Experiment [1] has as its target T1, β-secretase(BACE) (Homo sapiens, UniProt P56817).
T1 construct: purchased Panvera
The experiment is described as follows: BACE Assay-2 (FS1 substrate, IC50 and Ki). In kind it is biochemical. To be noted: procedure of Example 159, FS1 substrate; read-out: Ki μM (159).

Experiment [2] concerns the target T1, β-secretase(BACE). The experiment is described as follows: BACE FS1% Inhibition Assay. To be noted: FS1 substrate, read-out: % Inhibition (FS); for inhibition at 0.3 µM: 0.3 μM test compound; for inhibition at 1 µM: 1 μM test compound; for inhibition at 3 µM: 3 μM test compound. Format: biochemical. The method, boiled down: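 Percent inhibition at each tested concentration, referenced to enzyme-free blank and vehicle-only positive control. Reaction: compound and BACE (4 μg/mL working stock) mixed 20 min at room temperature before FS1 substrate (300 μg/mL working stock), then 1 h at room temperature.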

The source of these data is patent US8383637B2, “2-amino-quinazoline derivatives useful as inhibitors of β-secretase (BACE)” (Jansssen Pharmaceutica N.V., priority 2004, dated 2013).

T1 sequence (P56817 46-501): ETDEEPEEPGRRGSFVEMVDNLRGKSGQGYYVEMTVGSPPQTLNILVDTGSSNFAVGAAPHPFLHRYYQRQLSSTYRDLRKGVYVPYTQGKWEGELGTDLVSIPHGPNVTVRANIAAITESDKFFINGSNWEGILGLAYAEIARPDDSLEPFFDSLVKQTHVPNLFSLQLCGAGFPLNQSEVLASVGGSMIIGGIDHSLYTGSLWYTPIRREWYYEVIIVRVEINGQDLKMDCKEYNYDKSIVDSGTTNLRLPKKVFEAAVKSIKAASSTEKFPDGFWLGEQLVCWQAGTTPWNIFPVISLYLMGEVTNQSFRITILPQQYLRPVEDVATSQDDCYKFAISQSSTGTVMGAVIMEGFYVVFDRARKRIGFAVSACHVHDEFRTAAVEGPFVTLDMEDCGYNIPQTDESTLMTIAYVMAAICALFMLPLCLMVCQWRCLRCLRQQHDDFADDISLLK

Regarding `CN(C(=O)CC[C@@H]([C@H]1CC[C@@H](O)CC1)N1Cc2cc(Oc3ccccc3)ccc2N=C1N)C1CCCCC1` [Compound 731, 4-(2-Amino-6-phenoxy-4H-quinazolin-3-yl)-N-cyclohexyl-4-(cis-4-hydroxy-cyclohexyl)-N-methyl-butyramide], the Ki (usually the dissociation constant of the complex between target and ligand, obtained from inhibition or displacement) on β-secretase(BACE) [1] is 0.087 µM. On β-secretase(BACE) [2], the inhibition (usually the drop in the measured response relative to a control, in per cent) at 0.3 µM was 56%; the inhibition at 1 µM was 114%; the inhibition at 3 µM is 132%.

Turning to `CN(C(=O)CC[C@@H](C1CCC(=O)CC1)N1Cc2cc(Oc3ccccc3)ccc2N=C1N)C1CCCCC1` [Compound 732, (S)-enantiomer of 4-(2-Amino-6-phenoxy-4H-quinazolin-3-yl)-N-cyclohexyl-N-methyl-4-(4-oxo-cyclohexyl)-butyramide], on β-secretase(BACE) [1], the Ki came to 0.01 µM. Further, at β-secretase(BACE) [2], the inhibition at 0.3 µM was 135%, the inhibition at 1 µM came out at 135% and the inhibition at 3 µM was 133%.

As for `NC1=Nc2ccc(Oc3ccccc3)cc2CN1[C@@H](CCC(=O)N(CCO)C1CCCCC1)C1CCCCC1` [Compound 736, (S)-enantiomer of 4-(2-Amino-6-phenoxy-4H-quinazolin-3-yl)-4,N-dicyclohexyl-N-(2-hydroxy-ethyl)-butyramide], the inhibitory constant (Ki) at β-secretase(BACE) [1] was 0.013 µM. At β-secretase(BACE) [2], the inhibition at 0.3 µM turned out to be 125%, the inhibition at 1 µM was determined as 134% and the inhibition at 3 µM is 135%.

Consider `CN(C(=O)CC[C@@H](C1CCCCC1)N1Cc2cc(Oc3ccccc3)ccc2N=C1N)[C@H]1CC[C@@H](C(=O)O)CC1` [Compound 739, (S)-enantiomer of 4-cis-{[4-(2-Amino-6-phenoxy-4H-quinazolin-3-yl)-4-cyclohexyl-butyryl]-methyl-amino}-cyclohexanecarboxylic acid], for which the Ki at β-secretase(BACE) [1] turned out to be 0.005 µM. On β-secretase(BACE) [2], the inhibition at 0.3 µM worked out at 99%, the inhibition at 1 µM stood at 104% and the inhibition at 3 µM turned out to be 105%.

As for `CN(C(=O)CC[C@@H](C1CCCCC1)N1Cc2cc(Oc3ccccc3)ccc2N=C1N)[C@H]1CC[C@H](C(=O)O)CC1` [Compound 740], the Ki on β-secretase(BACE) [1] was 0.037 µM. At β-secretase(BACE) [2], the inhibition at 0.3 µM worked out at 82%, the inhibition at 1 µM was found to be 98% and the inhibition at 3 µM turned out to be 104%.

Take `CCOC(=O)C1CCC(N(C)C(=O)CCC(C2CCOCC2)N2Cc3cc(Oc4ccccc4)ccc3N=C2N)CC1` (stereo not drawn) [Compound 742]: the inhibitory constant (Ki) at β-secretase(BACE) [1] worked out at 0.168 µM. At β-secretase(BACE) [2], the inhibition at 0.3 µM worked out at 17%, the inhibition at 1 µM was 63% and the inhibition at 3 µM was 101%.

With `COC(=O)[C@H]1CC[C@@H](N(C)C(=O)CC[C@@H](C2CCOCC2)N2Cc3cc(Oc4ccccc4)ccc3N=C2N)CC1` [Compound 744], at β-secretase(BACE) [1], the inhibitory constant (Ki) worked out at 0.031 µM. Further, on β-secretase(BACE) [2], the inhibition at 0.3 µM was found to be 91%, the inhibition at 1 µM is 108% and the inhibition at 3 µM was 112%.

As to `CN(C(=O)CC[C@@H](C1CCOCC1)N1Cc2cc(Oc3ccccc3)ccc2N=C1N)[C@H]1CC[C@H](C(=O)O)CC1` [Compound 746], the inhibition constant (Ki) on β-secretase(BACE) [1] is 0.035 µM. At β-secretase(BACE) [2], the inhibition at 0.3 µM was 85%, the inhibition at 1 µM was 104% and the inhibition at 3 µM was determined as 112%.

As for `NC1=Nc2ccc(Oc3ccccc3)cc2CN1[C@@H](CCC(=O)N(CCO)[C@H]1CC[C@@H](C(=O)O)CC1)C1CCCCC1` [Compound 749, (S)-Enantiomer of 4-cis-[[4-(2-Amino-6-phenoxy-4H-quinazolin-3-yl)-4-cyclohexyl-butyryl]-(2-hydroxy-ethyl)-amino]-cyclohexanecarboxylic acid], on β-secretase(BACE) [1], the inhibition constant Ki is 0.017 µM. For the same compound, on β-secretase(BACE) [2], the inhibition at 0.3 µM came to 113%, the inhibition at 1 µM amounted to 112% and the inhibition at 3 µM stood at 115%.
